Experimental data reported in article PMC10147923, “Pain-causing stinging nettle toxins target TMEM233 to modulate NaV1.7 function” (Nature Communications, 2023).
“And” between values parts separate entries of the source, which are not always exact repeats. Equal values may be shown once. Read-outs that look alike come from different tables or passages of the source. Positions of bridges follow the written chain, without caps; N, C: chain ends. Residues, ends and D or L forms follow the SMILES beside them.

Experiments:
[1] = test system: total and TTX-s NaV current in wild-type DRG neurons; experiment: Persistent total NaV current, manual patch clamp, mouse DRG neurons; format: cell-based
Cos-1 cells = experiment: Currents in untransfected Cos-1 cells; format: cell-based; details: ExTxA 1 µM, mean ± SEM, n = 6
Experimental: Whole-cell patch clamp experiments involving HEK293, COS-1, CHO, ND7/23, F11, SH-SY5Y and TE-671 cells were performed on a QPatch II automated electrophysiology platform (Sophion Bioscience, Ballerup, Denmark) as previously described. Cells at approximately 70–80% confluency were harvested from T75 flasks using TrypLE Express at 37 °C for 2–5 min and resuspended in DMEM with 25 mM HEPES (Sigma-Aldrich, NSW, Australia), 100 U/mL Penicillin-Streptomycin (Gibco) and 40 µg/mL trypsin inhibitor from Glycine max (soybean) (Sigma Aldrich) prior to recovery on a QStirrer (Sophion) for 30 min. 16-channel patch plates with a patch hole diameter of 1 μm and resistance of 2 ± 0.02 MΩ were used. Cell positioning and sealing parameters were as follows: positioning pressure −60 mbar, minimum seal resistance 0.1 GΩ, holding potential −100 mV, holding pressure −20 mbar. Whole-cell currents were filtered at 5 kHz and acquired at 25 kHz. Series resistance compensation was used and set to 70%.

hNaV1.8 = experiment: Persistent current, CHO-hNaV1.8/β3; format: cell-based, human; details: ExTxA 1 µM
hNaV1.4 = experiment: Persistent current, HEK293-hNaV1.4/β1; format: cell-based, human; details: ExTxA 1 µM
[2] = test system: NaV currents in F11 cells; experiment: Persistent current, F11 cells; format: cell-based; details: ExTxA 1 µM; individual cells
NaV1.7/TMEM233 [3] = target: T1, NaV1.7/TMEM233 (Homo sapiens, UniProt B4DJY2+Q15858); format: cell-based
HEK293-NaV1.7 cells = format: cell-based, human; details: ExTxA 1 µM; for ΔF/F in NaV1.7 HEK293: mean, n = 3
Experimental: HEK293-NaV1.7 cells were transfected with TMEM233, CRELD1, LMAN2L, MMGT1, RNF121 and STT3B and co-transfected with five plasmids coding for the Glycosylphosphatidylinositol (GPI) complex (GPAA1, PIGK, PIGS, PIGU, PIGT) using Lipofectamine 2000. After 24 h, transfected cells were harvested and plated at a density of 10,000–15,000 cells per well on black-walled 384-well imaging plates. Plated cells were cultured for a further 24 h at 37 °C and 5% CO2. FLIPR (Fluorescent Imaging Plate Reader) Red membrane potential assay dye (Molecular Devices, California, USA) was diluted in physiological salt solution according to the manufacturer’s instructions (PSS, in mM: NaCl 140, glucose 11.5, HEPES 10, KCl 5.9, MgCl2 1.4, NaH2PO4 1.2, NaHCO3 5, CaCl2 1.8, pH 7.4). Growth medium was removed from the plate and replaced with 20 µL of FLIPR Red membrane potential assay dye per well and incubated in the dark at 37 °C for 60 min. […] Fluorescence responses to ExTxA were computed as the maximum change in fluorescence over baseline (ΔF/F0) using ScreenWorks (Molecular Devices, Version 5.1.2.94).

NaV1.7 = NaV1.7 (Homo sapiens, UniProt Q15858); format: cell-based; details: ExTxA 100 nM; individual cells
TE-671 cells [4] = details: ExTxA 1 µM + veratridine 5 µM + ouabain 20 nM
TE-671 cells, TMEM233 KO = format: cell-based; details: ExTxA 1 µM
NaV1.7/TMEM233 [5] = target: T1, NaV1.7/TMEM233; experiment: Ramp currents with ExTxA, HEK293 NaV1.7/TMEM233; format: cell-based
hNaV1.6 = experiment: Persistent current, HEK293-hNaV1.6/β1; format: cell-based, human; details: ExTxA 1 µM; individual cells
hNaV1.3 = experiment: Persistent current, HEK293-hNaV1.3/β1; format: cell-based, human; details: ExTxA 1 µM
hNaV1.7/β1 = experiment: Persistent current, CHO hNaV1.7/β1; format: cell-based, human; details: ExTxA 1 µM, mean, n = 11
wild-type C57BL/6 mice = details: cited from earlier work
TE-671 cells [6] = test system: TE-671 cells

Chain of NaV1.7 (Q15858 whole entry): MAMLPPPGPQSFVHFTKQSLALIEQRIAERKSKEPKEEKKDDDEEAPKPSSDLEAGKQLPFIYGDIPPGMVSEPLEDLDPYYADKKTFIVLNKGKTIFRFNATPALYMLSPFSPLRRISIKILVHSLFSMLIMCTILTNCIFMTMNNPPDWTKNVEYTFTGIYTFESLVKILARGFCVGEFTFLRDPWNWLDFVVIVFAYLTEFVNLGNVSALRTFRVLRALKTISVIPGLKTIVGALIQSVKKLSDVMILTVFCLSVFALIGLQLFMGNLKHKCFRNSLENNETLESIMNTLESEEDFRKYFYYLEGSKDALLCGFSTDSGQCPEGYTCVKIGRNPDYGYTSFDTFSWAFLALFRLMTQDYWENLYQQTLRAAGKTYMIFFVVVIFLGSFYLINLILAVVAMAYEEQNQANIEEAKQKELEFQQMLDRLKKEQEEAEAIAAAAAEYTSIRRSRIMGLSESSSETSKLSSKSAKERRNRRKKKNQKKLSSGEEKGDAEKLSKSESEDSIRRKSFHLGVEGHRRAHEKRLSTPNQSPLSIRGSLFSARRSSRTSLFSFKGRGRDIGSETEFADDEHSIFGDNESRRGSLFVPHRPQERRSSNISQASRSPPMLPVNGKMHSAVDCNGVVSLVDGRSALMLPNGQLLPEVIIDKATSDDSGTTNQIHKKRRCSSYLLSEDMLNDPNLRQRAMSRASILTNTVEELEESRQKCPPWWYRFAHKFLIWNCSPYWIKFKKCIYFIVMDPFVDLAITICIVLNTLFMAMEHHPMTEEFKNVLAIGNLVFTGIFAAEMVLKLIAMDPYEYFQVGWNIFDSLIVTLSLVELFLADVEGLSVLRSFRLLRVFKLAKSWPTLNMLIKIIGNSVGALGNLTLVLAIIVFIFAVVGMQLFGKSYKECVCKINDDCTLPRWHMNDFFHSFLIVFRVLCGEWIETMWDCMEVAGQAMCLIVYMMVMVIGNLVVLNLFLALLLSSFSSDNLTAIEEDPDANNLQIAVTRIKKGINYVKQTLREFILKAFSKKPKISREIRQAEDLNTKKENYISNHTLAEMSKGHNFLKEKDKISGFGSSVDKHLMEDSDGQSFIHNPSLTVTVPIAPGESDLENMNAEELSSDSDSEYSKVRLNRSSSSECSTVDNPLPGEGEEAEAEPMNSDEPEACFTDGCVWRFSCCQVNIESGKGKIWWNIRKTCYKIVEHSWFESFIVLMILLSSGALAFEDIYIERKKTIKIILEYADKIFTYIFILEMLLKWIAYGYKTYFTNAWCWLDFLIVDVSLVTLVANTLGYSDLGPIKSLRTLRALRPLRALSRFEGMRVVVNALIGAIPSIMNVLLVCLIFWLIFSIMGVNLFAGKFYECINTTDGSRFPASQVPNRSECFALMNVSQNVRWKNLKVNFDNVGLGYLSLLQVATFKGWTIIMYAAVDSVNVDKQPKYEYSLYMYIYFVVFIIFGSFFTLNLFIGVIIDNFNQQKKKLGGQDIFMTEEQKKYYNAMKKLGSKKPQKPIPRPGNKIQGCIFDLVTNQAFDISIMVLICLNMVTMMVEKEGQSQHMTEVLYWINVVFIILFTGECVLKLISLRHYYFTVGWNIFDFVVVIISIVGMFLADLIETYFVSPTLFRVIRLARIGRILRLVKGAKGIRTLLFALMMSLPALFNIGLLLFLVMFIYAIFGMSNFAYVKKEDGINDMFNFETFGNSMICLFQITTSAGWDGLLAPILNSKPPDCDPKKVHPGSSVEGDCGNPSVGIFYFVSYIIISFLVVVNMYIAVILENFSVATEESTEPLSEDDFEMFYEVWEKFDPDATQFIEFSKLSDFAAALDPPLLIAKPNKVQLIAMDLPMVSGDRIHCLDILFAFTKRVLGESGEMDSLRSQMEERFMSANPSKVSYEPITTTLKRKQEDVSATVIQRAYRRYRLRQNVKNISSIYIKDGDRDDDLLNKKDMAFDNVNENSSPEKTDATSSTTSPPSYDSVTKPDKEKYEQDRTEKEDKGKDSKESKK
Chain of NaV1.7 (Q07699 19-218, further chain): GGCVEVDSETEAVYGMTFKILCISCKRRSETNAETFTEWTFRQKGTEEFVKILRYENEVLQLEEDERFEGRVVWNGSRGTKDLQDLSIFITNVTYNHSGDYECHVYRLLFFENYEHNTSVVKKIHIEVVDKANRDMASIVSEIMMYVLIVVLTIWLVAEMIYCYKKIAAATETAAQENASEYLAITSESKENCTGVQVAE

## CC[C@H](C)[C@@H]1NC(=O)[C@H](CCCNC(=N)N)NC(=O)[C@H](Cc2ccccc2)NC(=O)[C@H](CC(C)C)NC(=O)[C@H](CO)NC(=O)[C@@H]2CSSC[C@@H]3NC(=O)[C@H]([C@@H](C)O)NC(=O)[C@H](CSSC[C@H](NC(=O)[C@H](CCCNC(=N)N)NC(=O)[C@@H]4CCCN4C(=O)[C@@H](N)CC(C)C)C(=O)N[C@@H](CC(=O)O)C(=O)N[C@@H](CO)C(=O)N4CCC[C@H]4C(=O)N[C@@H](Cc4ccccc4)C(=O)N2)NC(=O)[C@H](CCCCN)NC(=O)[C@H](CC(=O)O)NC(=O)CNC(=O)[C@H](CSSC[C@@H](C(=O)N[C@H](C(=O)N2CCC[C@H]2C(=O)N[C@@H](CC(=O)O)C(=O)N[C@H](C(=O)O)C(C)C)C(C)C)NC(=O)[C@H](CC(C)C)NC(=O)CNC(=O)[C@H](Cc2ccccc2)NC(=O)[C@H]([C@@H](C)CC)NC(=O)[C@@H]2CCCN2C(=O)[C@H](CC(C)C)NC(=O)[C@@H]2CCCN2C(=O)[C@H](C(C)C)NC3=O)NC(=O)[C@H](CC(C)C)NC(=O)CNC1=O [ExTxA, excelsatoxin A] (H-LPRCDSPFCSLFRIGLCGDKCTCVPLPIFGLCVPDV-OH; disulfide 4-21, 9-23, 17-32)
[1]; ExTxA 100 nM in 0.1% BSA, depolarization to -20 mV from -90 mV, mean, n = 6
  DRG total persistent NaV current (I40 ms/Ipeak): 0.513 ± 0.10 and 0.5133
[1]; ExTxA 100 nM, Tukey's multiple comparisons
  Mean Diff. of persistent current, Control vs. ExTxA: -0.4859
[1]; ExTxA 100 nM, individual cells, one line per cell
  DRG total persistent NaV current (I40 ms/Ipeak): 0.842 and 0.3774 and 0.8283 and 0.3793 and 0.3284 and 0.3245
Cos-1 cells
  ExTxA-induced persistent current: -2.019 ± 5.908 pA
hNaV1.8; individual cells
  persistent current (I40 ms/Ipeak): 0.04156 and 0.003935 and 0.01946 and 0.03094 and 0.03913 and 0.02554
hNaV1.8; mean
  Δ persistent current (I40 ms/Ipeak; buffer cf. ExTxA): 0.027 ± 0.0057 and 0.02676
hNaV1.4; individual cells
  persistent current (I40 ms/Ipeak): -0.00323 and 0.000561 and 0.001128 and 1.82e-5 and 3.19e-5 and 0.001575 and 0.001393 and -0.00031 and -0.00116
hNaV1.4; mean
  Δ persistent current (I40 ms/Ipeak; buffer cf. ExTxA): 7.89E-07 ± 0.0005 and 7.889e-7
[2]
  persistent current (I40 ms/Ipeak): 0.004557 and -0.00296 and -0.00917 and -0.00017 and -0.00072 and 0.02041
NaV1.7/TMEM233 [3]
  Best-fit parameter Bottom: 0.0729
  Best-fit parameter Hill slope: 1.156
  Best-fit parameter Top: 0.7692
  Top: 0.7845
  persistent current, Predicted (LS) mean diff.: -0.5401
  potency with TMEM233 versus PRRT2 or TRARG1: significantly more potent when co-expressed with TMEM233
NaV1.7/TMEM233 [3]; ExTxA 100 nM in ECS
  effect on inactivation, toxin in extracellular solution: robustly inhibited inactivation
NaV1.7/TMEM233 [3]; ExTxA 100 nM in ICS
  effect on inactivation, toxin in intracellular solution: did not affect inactivation
NaV1.7/TMEM233 [3]; ExTxA 1 µM
  Difference between means (D - C), TMEM233 minus control: -1468 ± 228.9 pA
NaV1.7/TMEM233 [3]; Nav1.7/TMEM233, 95% CI -8.367 to -8.102, Fig 4g
  LogEC50: -8.24
NaV1.7/TMEM233 [3]; Nav1.7/TMEM233, Fig 4g
  HillSlope: 0.9284
HEK293-NaV1.7 cells; Control (untransfected NaV1.7)
  ΔF/F in NaV1.7 HEK293: 0.016 ± 0.013 and 0.01598
HEK293-NaV1.7 cells; GPAA1+PIG K, S, T, U, replicate 1
  DF/F: -0.0084
HEK293-NaV1.7 cells; GPAA1+PIG K, S, T, U, replicate 2
  DF/F: -0.00023
HEK293-NaV1.7 cells; GPAA1+PIG K, S, T, U, replicate 3
  DF/F: -0.01147
HEK293-NaV1.7 cells; Lman2L
  ΔF/F in NaV1.7 HEK293: 0.014 ± 0.0048 and 0.01413
HEK293-NaV1.7 cells; Lman2L, replicate 1
  DF/F: 0.02361
HEK293-NaV1.7 cells; Lman2L, replicate 2
  DF/F: 0.01087
HEK293-NaV1.7 cells; Lman2L, replicate 3
  DF/F: 0.007914
HEK293-NaV1.7 cells; Mmgt1, replicate 1
  DF/F: -0.00761
HEK293-NaV1.7 cells; Mmgt1, replicate 2
  DF/F: -0.00711
HEK293-NaV1.7 cells; Mmgt1, replicate 3
  DF/F: -0.00296
HEK293-NaV1.7 cells; RNF121, replicate 1
  DF/F: -0.01721
HEK293-NaV1.7 cells; RNF121, replicate 2
  DF/F: -0.01119
HEK293-NaV1.7 cells; RNF121, replicate 3
  DF/F: 0.007423
HEK293-NaV1.7 cells; Stt3b
  ΔF/F in NaV1.7 HEK293: 0.013 ± 0.00098 and 0.01262
HEK293-NaV1.7 cells; Stt3b, replicate 1
  DF/F: 0.01077
HEK293-NaV1.7 cells; Stt3b, replicate 2
  DF/F: 0.013
HEK293-NaV1.7 cells; Stt3b, replicate 3
  DF/F: 0.01408
HEK293-NaV1.7 cells; Untransfected Nav1.7, replicate 1
  DF/F: 0.03099
HEK293-NaV1.7 cells; Untransfected Nav1.7, replicate 2
  DF/F: -0.01092
HEK293-NaV1.7 cells; Untransfected Nav1.7, replicate 3
  DF/F: 0.02788
NaV1.7
  hiPSC-derived sensory neurons persistent current (I40 ms/Ipeak): 0.1753 and 0.2081 and 0.0959 and 0.1857 and 0.092
TE-671 cells [4]
  effect of gene knockdown on ExTxA cytotoxicity: prevented by the knockdown of SCN9A (the gene encoding the NaV1.7 α subunit) as well as ten other genes (RNF121, GPAA1, PIGT, CRELD1, PIGK, STT3B, TMEM233, PIGS, MMGT1, and LMAN2L), and exacerbated by knockdown of SPAG5, TMEM161B and NEDD4L
TE-671 cells, TMEM233 KO
  Difference between means (B - A), TMEM233-/- minus wildtype: -0.7661 ± 0.02026
TE-671 cells, TMEM233 KO; TMEM233-/-, individual cells
  persistent current (I40 ms/Ipeak): 0.1031 and 0.03299 and 0.02248 and 0.06663 and 0.03142 and 0.02781
NaV1.7/TMEM233 [5]
  Ramp current (0.2 mV/s): -1.952 ± 0.950 nA
NaV1.7/TMEM233 [5]; NaV1.7-TMEM233 + ExTxA (100 nM), individual cells
  Ramp current: -2.267 and -0.5155 and -0.3095 and -7.0521 and -0.7027 and -0.3607 and -2.095 and -0.6283
NaV1.7/TMEM233 [5]; extracellular ExTxA
  currents induced by slow voltage-ramps: an increase of currents induced by slow voltage-ramps
hNaV1.6
  persistent current (I40 ms/Ipeak): -0.07037 and 0.003531 and 0.01691 and 0.001263 and 0.000702 and -0.00068 and -0.03041 and 0.01768
hNaV1.3; individual cells
  persistent current (I40 ms/Ipeak): 0.0261 and 0.07967 and 0.01209 and 0.007119 and 0.06666 and 0.04746 and 0.006524 and 0.006085 and 0.07156 and 0.01737 and 0.02558 and -0.00907 and 0.002307 and 0.02027 (2×) and 0.01594 and 0.04935 and 0.06033 and 0.03164 and 0.000895 and 0.0334 and 0.008347 and 0.02877
hNaV1.3; mean
  Δ persistent current (I40 ms/Ipeak; buffer cf. ExTxA): 0.0265 ± 0.0049 and 0.02645
hNaV1.7/β1
  Δ persistent current (I40 ms/Ipeak) in CHO hNaV1.7: 0.0001 ± 0.001 and 0.0001365
wild-type C57BL/6 mice
  pain behavior after intraplantar administration in mice: elicits spontaneous pain behaviors and an axon reflex flare following intraplantar administration in mice
TE-671 cells [6]; ExTxA 1 µM
  toxicity to TE-671 cells, ExTxA alone: did not cause visible toxicity
TE-671 cells [6]; ExTxA 1 µM + veratridine 5 µM + ouabain 20 nM
  toxicity to TE-671 cells, with veratridine and ouabain: cell death
